Data published in patent publication US20260356856A1, “KRAS G12S AND G12C INHIBITORS” (MIRATI THERAPEUTICS, INC., priority 2023, published 2026).

Key:
KRas WT = target: T1, KRas WT (Homo sapiens, UniProt P01116); test: KRas binding assay, TR-FRET displacement of Cy5 labelled tracer; conditions: 60-minute incubation at room temperature, 1% DMSO, pH 7.5
T1 construct: Biotinylated KRas (corresponding to amino acids 1-169, produced at Accelegan Inc.); biotin (biotinylated); purchased Accelegan Inc
Outline: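 Biotinylated KRas (aa 1-169) incubated with Cy5-labelled tracer, terbium streptavidin and compound (1% DMSO final) in 50 mM HEPES pH 7.5, 5 mM MgCl2, 0.005% Tween-20, 1 mM DTT. Tracer displacement read by TR-FRET after 60 min at room temperature; POC values fitted to 4-parameter IC50 equation.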

KRas G12C = target: T2, KRas G12C (Homo sapiens, UniProt P01116, G12C); test: as above; conditions: 60-minute incubation at room temperature, 1% DMSO, pH 7.5
T2 construct: Biotinylated KRas (corresponding to amino acids 1-169, produced at Accelegan Inc.); biotin (biotinylated); purchased Accelegan Inc
Outline: (§1)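 Biotinylated KRas (residues 1-169) was incubated with tracer, terbium-streptavidin and compound at 1% DMSO final in 50 mM HEPES pH 7.5 containing 5 mM MgCl2, 0.005% Tween-20 and 1 mM DTT. The plate was read after 60 min at room temperature, and percent-of-control data were fit to a 4-parameter IC50 equation.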

KRas G12S = target: T3, KRas G12S (Homo sapiens, UniProt P01116, G12S); test: as above; conditions: 60-minute incubation at room temperature, 1% DMSO, pH 7.5
T3 construct: Biotinylated KRas (corresponding to amino acids 1-169, produced at Accelegan Inc.); biotin (biotinylated); purchased Accelegan Inc
Outline: as §1

[1] = target: T4, KRas-mediated phosphorylation of ERK in A549 cells (Homo sapiens, UniProt P01116, G12S); test: Inhibition of KRas-mediated phosphorylation of ERK (HTRF), A549 cells; type: cell-based; conditions: HTRF pERK, 3 h incubation
T4 construct: pERK HTRF read-out

[2] = target: T5, KRas-mediated phosphorylation of ERK in MKN1 cells (Homo sapiens, UniProt P01116); test: Inhibition of KRas-mediated phosphorylation of ERK (HTRF), MKN1 cells; type: cell-based; conditions: MKN1 cells (KRas WT); HTRF pERK; 3 h incubation
T5 construct: pERK HTRF read-out
Procedure: Inhibition of KRas Phosphorylation of ERK (HTRF) by Exemplary Compounds of Formula (Ia) or (Ib)
Cisbio HTRF Advanced pERK Assay Catalog #64AERPEH • Cells: MKN1, PSN1 • Procedure: • 1. Day 1: Seed 6,000 cells/well −25 μl/well in 384-well white solid bottom plate; RPM1_10% FBS. Incubate overnight at 37 °C/5% CO2. • 2.

T4 sequence (P01116 1-188 isoform P01116-2 G12S): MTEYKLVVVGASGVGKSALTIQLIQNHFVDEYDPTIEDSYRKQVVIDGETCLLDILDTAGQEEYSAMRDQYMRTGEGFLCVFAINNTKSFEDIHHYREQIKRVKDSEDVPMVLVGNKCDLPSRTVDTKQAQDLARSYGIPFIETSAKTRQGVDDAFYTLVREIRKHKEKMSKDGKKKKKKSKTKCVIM
T1 sequence (P01116 1-169 isoform P01116-2): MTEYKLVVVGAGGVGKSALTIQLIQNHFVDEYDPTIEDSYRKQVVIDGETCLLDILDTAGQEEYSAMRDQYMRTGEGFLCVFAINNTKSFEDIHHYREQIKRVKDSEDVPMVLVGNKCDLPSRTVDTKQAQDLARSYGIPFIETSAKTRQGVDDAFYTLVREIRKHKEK
T2 sequence (P01116 1-169 isoform P01116-2 G12C): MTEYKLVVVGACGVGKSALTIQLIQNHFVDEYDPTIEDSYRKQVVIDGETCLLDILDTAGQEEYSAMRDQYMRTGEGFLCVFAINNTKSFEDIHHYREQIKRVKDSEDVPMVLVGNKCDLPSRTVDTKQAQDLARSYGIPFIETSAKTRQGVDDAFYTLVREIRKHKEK
T5 sequence (P01116 1-188 isoform P01116-2): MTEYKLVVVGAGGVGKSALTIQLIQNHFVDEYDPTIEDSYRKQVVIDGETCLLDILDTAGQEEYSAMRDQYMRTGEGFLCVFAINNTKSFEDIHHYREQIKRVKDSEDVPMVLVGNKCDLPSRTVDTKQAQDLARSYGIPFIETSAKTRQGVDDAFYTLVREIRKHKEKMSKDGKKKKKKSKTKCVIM
T3 sequence (P01116 1-169 isoform P01116-2 G12S): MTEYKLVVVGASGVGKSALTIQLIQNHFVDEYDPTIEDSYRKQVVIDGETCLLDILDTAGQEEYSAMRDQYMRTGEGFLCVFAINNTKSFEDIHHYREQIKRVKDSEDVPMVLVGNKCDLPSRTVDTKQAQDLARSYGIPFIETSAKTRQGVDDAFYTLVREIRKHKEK

Row | Structure (SMILES) | IC50 (KRas WT) [nM] | IC50 (KRas G12C) [nM] | IC50 (KRas G12S) [nM] | IC50 [1] [nM] | IC50 [2] [nM]
1 | CCc1c(F)ccc2cc(O)cc(-c3ncc4c(N5C[C@H]6CC(C(=O)n7ccc(C)n7)C[C@@H]6C5)nc(OC[C@@]56CCCN5C[C@H](F)C6)nc4c3F)c12 [Example 115, ((3aS,6aS)-2-(7-(8-ethyl-7-fluoro-3-hydroxynaphthalen-1-yl)-8-fluoro-2-(((2R,7aS)-2-fluorotetrahydro-1H-pyrrolizin-7a(5H)-yl)methoxy)pyrido[4,3-d]pyrimidin-4-yl)octahydrocyclopenta[c]pyrrol-5-yl)(3-methyl-1H-pyrazol-1-yl)methanone] | 260 | 4120 | 1800 | > 10000 | 2670
2 | CCc1c(F)ccc2cc(O)cc(-c3ncc4c(N5C[C@H]6CC(C(=O)n7ccc(C)n7)C[C@H]6C5)nc(OC[C@@]56CCCN5C[C@H](F)C6)nc4c3F)c12 (stereo partly drawn) [Example 116, ((3aR,6aS)-2-(7-(8-ethyl-7-fluoro-3-hydroxynaphthalen-1-yl)-8-fluoro-2-(((2R,7aS)-2-fluorotetrahydro-1H-pyrrolizin-7a(5H)-yl)methoxy)pyrido[4,3-d]pyrimidin-4-yl)octahydrocyclopenta[c]pyrrol-5-yl)(3-methyl-1H-pyrazol-1-yl)methanone] | 3480 | 111 | 11 | 35 | 4440
3 | CCc1c(F)ccc2cc(O)cc(-c3ncc4c(N5CCCC6CC6(C(=O)n6ccc(C)n6)CC5)nc(OC[C@@]56CCCN5C[C@H](F)C6)nc4c3F)c12 (stereo partly drawn) [Example 117, (4-(7-(8-ethyl-7-fluoro-3-hydroxynaphthalen-1-yl)-8-fluoro-2-(((2R,7aS)-2-fluorotetrahydro-1H-pyrrolizin-7a(5H)-yl)methoxy)pyrido[4,3-d]pyrimidin-4-yl)-4-azabicyclo[6.1.0]nonan-1-yl)(3-methyl-1H-pyrazol-1-yl)methanone] | 68 | 129 | 158 | 4050 | 333
4 | CCc1c(F)ccc2cc(O)cc(-c3ncc4c(N5C[C@@H]6[C@H](C5)[C@H]6C(=O)n5ccc(C)n5)nc(OC[C@@]56CCCN5C[C@H](F)C6)nc4c3F)c12 [Example 118, ((1R,5S,6S)-3-(7-(8-ethyl-7-fluoro-3-hydroxynaphthalen-1-yl)-8-fluoro-2-(((2R,7aS)-2-fluorotetrahydro-1H-pyrrolizin-7a(5H)-yl)methoxy)pyrido[4,3-d]pyrimidin-4-yl)-3-azabicyclo[3.1.0]hexan-6-yl)(3-methyl-1H-pyrazol-1-yl)methanone] | 873 | 591 | 437 | 7840 | 5750
5 | CCc1c(F)ccc2cc(O)cc(-c3ncc4c(N5CC(C(=O)n6ccc(C)n6)C6(CC6)C5)nc(OC[C@@]56CCCN5C[C@H](F)C6)nc4c3F)c12 (stereo partly drawn) [Example 119, (5-(7-(8-ethyl-7-fluoro-3-hydroxynaphthalen-1-yl)-8-fluoro-2-(((2R,7aS)-2-fluorotetrahydro-1H-pyrrolizin-7a(5H)-yl)methoxy)pyrido[4,3-d]pyrimidin-4-yl)-5-azaspiro[2.4]heptan-7-yl)(3-methyl-1H-pyrazol-1-yl)methanone] | 402 | 171 | 183 | > 10000 | > 10000
6 | CCc1c(F)ccc2cc(O)cc(-c3ncc4c(N5CC6C(CC(=O)n7ccc(C)n7)C6C5)nc(OC[C@@]56CCCN5C[C@H](F)C6)nc4c3F)c12 (stereo partly drawn) [Example 120, 2-(3-(7-(8-ethyl-7-fluoro-3-hydroxynaphthalen-1-yl)-8-fluoro-2-(((2R,7aS)-2-fluorotetrahydro-1H-pyrrolizin-7a(5H)-yl)methoxy)pyrido[4,3-d]pyrimidin-4-yl)-3-azabicyclo[3.1.0]hexan-6-yl)-1-(3-methyl-1H-pyrazol-1-yl) ethan-1-one] | 1210 | 142 | 186 | 229 | 5380
7 | CCc1c(F)ccc2cc(O)cc(-c3ncc4c(NCCC(=O)n5ccc(C)n5)nc(OC[C@@]56CCCN5C[C@H](F)C6)nc4c3F)c12 [Example 122, 3-((7-(8-ethyl-7-fluoro-3-hydroxynaphthalen-1-yl)-8-fluoro-2-(((2R,7aS)-2-fluorotetrahydro-1H-pyrrolizin-7a(5H)-yl)methoxy)pyrido[4,3-d]pyrimidin-4-yl)amino)-1-(3-methyl-1H-pyrazol-1-yl) propan-1-one] | 19 | 9 | 5 | 38 | 342
8 | Cc1ccn(C(=O)C2CCCN(c3nc(OC[C@@]45CCCN4C[C@H](F)C5)nc4c(F)c(-c5ccc(F)c6sc(N)c(C#N)c56)c(Cl)cc34)CCC2)n1 [Example 134, 2-amino-4-(6-chloro-8-fluoro-2-(((2R,7aS)-2-fluorotetrahydro-1H-pyrrolizin-7a(5H)-yl)methoxy)-4-(5-(3-methyl-1H-pyrazole-1-carbonyl)azocan-1-yl)quinazolin-7-yl)-7-fluorobenzo[b]thiophene-3-carbonitrile] | 21 | 59 | 46 | 1840 | 187
9 | Cc1ccn(C(=O)C2CCN(c3nc(OC[C@@]45CCCN4C/C(=C\F)C5)nc4c(F)c(-c5ccc(F)c6sc(N)c(C#N)c56)c(Cl)cc34)CC2)n1 [Example 135, 2-amino-4-(6-chloro-8-fluoro-2-(((S,Z)-2-(fluoromethylene)tetrahydro-1H-pyrrolizin-7a(5H)-yl)methoxy)-4-(4-(3-methyl-1H-pyrazole-1-carbonyl)piperidin-1-yl)quinazolin-7-yl)-7-fluorobenzo[b]thiophene-3-carbonitrile] | 11 | 9 | 6 | 6 | 83
10 | Cc1ccn(C(=O)C2CCCCN(c3nc(OC[C@@]45CCCN4C[C@H](F)C5)nc4c(F)c(-c5ccc(F)c6sc(N)c(C#N)c56)c(Cl)cc34)C2)n1 (stereo partly drawn) [Example 136, 2-amino-4-(6-chloro-8-fluoro-2-(((2R,7aS)-2-fluorotetrahydro-1H-pyrrolizin-7a(5H)-yl)methoxy)-4-(3-(3-methyl-1H-pyrazole-1-carbonyl)azepan-1-yl)quinazolin-7-yl)-7-fluorobenzo[b]thiophene-3-carbonitrile] | 23 | 16 | 17 | 249 | 13
11 | Cc1ccn(C(=O)C2CCCCN(c3nc(OC[C@@]45CCCN4C[C@H](F)C5)nc4c(F)c(-c5ccc(F)c6sc(N)c(C#N)c56)c(Cl)cc34)CC2)n1 (stereo partly drawn) [Example 137, 2-amino-4-(6-chloro-8-fluoro-2-(((2R,7aS)-2-fluorotetrahydro-1H-pyrrolizin-7a(5H)-yl)methoxy)-4-(4-(3-methyl-1H-pyrazole-1-carbonyl)azocan-1-yl)quinazolin-7-yl)-7-fluorobenzo[b]thiophene-3-carbonitrile] | 44 | 13 | 10 | 29 | 142
12 | CCc1c(F)ccc2cc(O)cc(N3CCc4c(nc(OC[C@@]56CCCN5C[C@H](F)C6)nc4N4CCCCC(C(=O)n5ccc(C)n5)C4)C3)c12 (stereo partly drawn) [Example 147, (1-(7-(8-ethyl-7-fluoro-3-hydroxynaphthalen-1-yl)-2-(((2R,7aS)-2-fluorotetrahydro-1H-pyrrolizin-7a(5H)-yl)methoxy)-5,6,7,8-tetrahydropyrido[3,4-d]pyrimidin-4-yl)azepan-3-yl)(3-methyl-1H-pyrazol-1-yl)methanone] | 45 | 16 | 37 | 1210 | 45
13 | CCc1c(F)ccc2cc(O)cc(N3CCc4c(nc(OC[C@@]56CCCN5C[C@H](F)C6)nc4N4CCCCC(C(=O)n5ccc(C)n5)CC4)C3)c12 (stereo partly drawn) [Example 148, (1-(7-(8-ethyl-7-fluoro-3-hydroxynaphthalen-1-yl)-2-(((2R,7aS)-2-fluorotetrahydro-1H-pyrrolizin-7a(5H)-yl)methoxy)-5,6,7,8-tetrahydropyrido[3,4-d]pyrimidin-4-yl)azocan-4-yl)(3-methyl-1H-pyrazol-1-yl)methanone] | 147 | 19 | 10 | 140 | 108
14 | CCc1c(F)ccc2cc(O)cc(N3CCc4c(nc(OC[C@@]56CCCN5C[C@H](F)C6)nc4N4CCCC(C(=O)n5ccc(C)n5)CCC4)C3)c12 [Example 149, (1-(7-(8-ethyl-7-fluoro-3-hydroxynaphthalen-1-yl)-2-(((2R,7aS)-2-fluorotetrahydro-1H-pyrrolizin-7a(5H)-yl)methoxy)-5,6,7,8-tetrahydropyrido[3,4-d]pyrimidin-4-yl)azocan-5-yl)(3-methyl-1H-pyrazol-1-yl)methanone] | 1310 | 3740 | 1470 | > 10000 | 6530
